Tested on: tonic hind limb extensor convulsions (mouse model of generalised seizure)
Test: mini-MEST (maximal electroshock seizure threshold) test in the mouse
Settings: for change in vivo at 5 mg/kg / change in vivo at 50 mg/kg / change in vivo at 25 mg/kg: Mus musculus, ip, change in CC50; for change in vivo at 5 mg/kg: 0.25 h, read-out: % change from vehicle, 5 mg/kg i.p., 15 min post dose; for change in vivo at 50 mg/kg / change in vivo at 25 mg/kg: 0.5 h; for change in vivo at 50 mg/kg: read-out: % change from vehicle, 50 mg/kg i.p., 30 min post dose; for change in vivo at 25 mg/kg: read-out: % change from vehicle, 25 mg/kg i.p., 30 min post dose
Protocol: The efficacy of novel resorcinols 2, 3, 5, 8, 10, 15, 16, 17, 18, 19, 41 45, 46, 53, 56 and 58 were tested in a novel mouse model of generalised seizure, the mini-MEST (maximal electroshock seizure threshold) test, which uses lower n numbers than typically used.
The maximal electroshock seizure threshold (MEST) test is widely utilized preclinically to evaluate pro- or anti-convulsant properties of test compounds (Loscher et al., 1991).
In the MEST test the ability of a drug to alter the seizure threshold current required to induce hind limb tonic extensor convulsions is measured according to an “up and down” method of shock titration (Kimball et al., 1957). An increase in seizure threshold is indicative of anti-convulsant effect.
The ability of a test compound to alter the stimulus intensity, expressed as current (mA), required to induce the presence of tonic hind limb extensor convulsions, is assessed in the MEST.
Naïve mice were acclimatised to the procedure room in their home cages for up to 7 days, with food and water available ad libitum.
All animals were weighed at the beginning of the study and randomly assigned to treatment groups based on a mean distribution of body weight across groups.
The first animal within a treatment group was given a shock at the expected or estimated CC50 current. For subsequent animals, the current was lowered or raised depending on the convulsions outcome from the preceding animal in log scale intervals.
Data generated from each treatment group were used to calculate the CC50±SEM values for the treatment group.
Vehicle: (5% ethanol, 10% solutol in 85% Saline) was prepared as follows: 1 mL of ethanol, 2 mL of solutol were warmed to 60° C., in 17 mL of saline (1:2:17).
The test compounds used were 2, 3, 5, 8, 10, 15, 16, 17, 18, 19, 41, 45, 46, 53, 56 and 58 Test compounds were administered at 5-50 mg/kg (i.p.) in a 1:2:17 ethanol:solutol:saline formulation.
Test compound effects were also calculated as percentage change in CC50 from the vehicle control group.
Significant difference between drug-treated animals and controls were assessed according to Litchfield and Wilcoxon (1949).

[1] = 5 mg/kg i.p., test 15 min post dose
[2] = 50 mg/kg i.p., test 30 min post dose
[3] = 25 mg/kg i.p., test 30 min post dose

| Compound | CC50 +/− SEM [1] | CC50 +/− SEM [2] | change in vivo at 5 mg/kg [%] | change in vivo at 50 mg/kg [%] | CC50 +/− SEM [3] | change in vivo at 25 mg/kg [%] |
| --- | --- | --- | --- | --- | --- | --- |
| C=C(C)[C@@H]1C[C@H](O)C(C)=C[C@H]1c1c(O)cc(-c2ccc3c(c2)OCO3)cc1O [Compound 41, (1′R,2′R,4′S)-4-(Benzo[d][1,3]dioxol-5-yl)-5′-methyl-2′-(prop-1-en-2-yl)-1′,2′,3′,4′-tetrahydro-[1,1′-biphenyl]-2,4′,6-triol] | 50.5 ± 0.7 mA | >131.0 mA | 91 | > 394 |  |  |
| C=C(C)[C@@H]1C[C@H](O)C(C)=C[C@H]1c1c(O)cc(-c2cccc(OC(F)F)c2)cc1O [Compound 31, (1R,2R,4S)-3″-(Difluoromethoxy)-5-methyl-2-(prop-1-en-2-yl)-1,2,3,4-tetrahydro-[1,1′:4′,1″-terphenyl]-2′,4,6′-triol] | 33.0 ± 1.5 mA | 79.5 ± 1.3 mA | 25 | 200 |  |  |
| C=C(C)[C@@H]1C[C@H](O)C(C)=C[C@H]1c1c(O)cc(Br)c(Cl)c1O [Compound 47, (1′R,2′R,4′S)-4-bromo-3-chloro-5′-methyl-2′-(prop-1-en-2-yl)-1″,2″,3′,4′-tetrahydro-[1,1′-biphenyl]-2,4′,6-triol] |  |  |  |  | 79.5 ± 10.0 mA | 238 |
| C=C(C)[C@@H]1C[C@H](O)C(C)=C[C@H]1c1c(O)cc(-c2ccccc2OC)cc1O [Compound 29, (1R,2R,4S)-2″-Methoxy-5-methyl-2-(prop-1-en-2-yl)-1,2,3,4-tetrahydro-[1,1′:4′,1″-terphenyl]-2″,4,6′-triol] | 35.0 ± 2.6 mA | 70.5 ± 1.3 mA | 32 | 166 |  |  |
| C=C(C)[C@@H]1C[C@H](O)C(C)=C[C@H]1c1c(O)cc(-c2ccnc(OC)c2)cc1O [Compound 16, (1′R,2′R,4′S)-4-(2-Methoxypyridin-4-yl)-5′-methyl-2′-(prop-1-en-2-yl)-1″,2′,3′,4′-tetrahydro-[1,1′-biphenyl]-2,4′,6-triol] |  | 70.5 +/− 1.3 mA |  | 213 |  |  |
| C=C(C)[C@@H]1C[C@H](O)C(C)=C[C@H]1c1c(O)cc(CCOC)cc1O [Compound 5, (1′R,2′R,4′S)-4-(2-Methoxyethyl)-5′-methyl-2′-(prop-1-en-2-yl)-1″,2′,3′,4′-tetrahydro-[1,1′-biphenyl]-2,4′,6-triol] | 23.5 +/− 0.3 mA | 50.5 +/− 0.7 mA | 0 | 115 |  |  |
| C=C(C)[C@@H]1C[C@H](O)C(C)=C[C@H]1c1c(O)cc(CC)cc1O [Compound 3, (1″R,2′R,4′S)-4-Ethyl-5′-methyl-2″-(prop-1-en-2-yl)-1′,2″,3″,4′-tetrahydro-[1,1″-biphenyl]-2,4′,6-triol] | 44.2 +/− 1.4 mA | 59.2 +/− 1.4 mA | 77 | 137 |  |  |
| C=C(C)[C@@H]1C[C@H](O)C(C)=C[C@H]1c1c(O)cc(-c2ccc(OC)cc2)cc1O [Compound 33, (1R,2R,4S)-4″-Methoxy-5-methyl-2-(prop-1-en-2-yl)-1,2,3,4-tetrahydro-[1,1′:4′,1″-terphenyl]-2′,4,6′-triol] | 38.8 ± 1.4 mA | 79.5 ± 0.9 mA | 47 | 200 |  |  |
| C=C(C)[C@@H]1C[C@H](OC)C(C)=C[C@H]1c1c(O)cc(CCC)cc1O [Compound 53, (1′R,2′R,4′S)-4′-Methoxy-5′-methyl-2′-(prop-1-en-2-yl)-4-propyl-1′,2″,3′,4′-tetrahydro-[1,1′-biphenyl]-2,6-diol] |  |  |  |  | 29.0 +/− 1.5 mA | 29 |
| C=C(C)[C@@H]1C[C@H](O)C(C)=C[C@H]1c1c(O)cc(-c2ccc(F)c(OC)c2)cc1O [Compound 30, (1R,2R,4S)-4″-Fluoro-3″-methoxy-5-methyl-2-(prop-1-en-2-yl)-1,2,3,4-tetrahydro-[1,1′:4′,1″-terphenyl]-2′,4,6′-triol] | 43.0 ± 1.9 mA | >131 mA | 62 | > 394 |  |  |
| C=C(C)[C@@H]1C[C@H](O)C(C)=C[C@H]1c1c(O)cc(C2CC2)cc1O [Compound 8, (1′R,2′R,4′S)-4-Cyclopropyl-5′-methyl-2′-(prop-1-en-2-yl)-1′,2′,3′,4′-tetrahydro-[1,1′-biphenyl]-2,4″,6-triol] | 24.5 ± 0.9 mA | 58.2 ± 2.0 mA | 9 | 159 |  |  |
| C=C(C)[C@@H]1C[C@H](O)C(C)=C[C@H]1c1c(O)cc(C2=CCCC2)cc1O [Compound 9, (1′R,2′R,4′S)-4-(Cyclopent-1-en-1-yl)-5′-methyl-2′-(prop-1-en-2-yl)-1′,2′,3′,4′-tetrahydro-[1,1′-biphenyl]-2,4′,6-triol] |  | >131.0 mA |  | > 344 |  |  |
| C=C(C)[C@@H]1C[C@H](O)C(C)=C[C@H]1c1c(O)cc(/C=C/C)cc1O [Compound 7, (1′R,2′R,4′S)-5′-Methyl-4-((E)-prop-1-en-1-yl)-2′-(prop-1-en-2-yl)-1′,2′,3′,4′-tetrahydro-[1,1′-biphenyl]-2,4′,6-triol] | 29.0 ± 1.5 mA | 75.0 ± 3.4 mA | -2 | 153 |  |  |
| C=C(C)[C@@H]1C[C@H](O)C(C)=C[C@H]1c1c(O)cc(CCC)c(F)c1O [Compound 45, (1′R,2′R,4′S)-3-fluoro-5′-methyl-2′-(prop-1-en-2-yl)-4-propyl-1′,2′,3′,4′-tetrahydro-[1,1′-biphenyl]-2,4′,6-triol] | 35.5 +/− 0.5 mA |  | 58 |  |  |  |
| C=C(C)[C@@H]1C[C@H](O)C(C)=C[C@H]1c1c(O)c(C)c(-c2ccnc(OC)c2)c(C)c1O [Compound 52, (1′R,2′R,4′S)-4-(2-Methoxypyridin-4-yl)-3,5,5′-trimethyl-2′-(prop-1-en-2-yl)-1′,2′,3′,4′-tetrahydro-[1,1′-biphenyl]-2,4′,6-triol] | 31.0 ± 4.5 mA | 76.5 ± 2.6 mA | 9 | 170 |  |  |
| C=C(C)[C@@H]1C[C@H](O)C(C)=C[C@H]1c1c(O)cc(Cl)cc1O [Compound 2, (1′R,2′R,4′S)-4-Chloro-5′-methyl-2′-(prop-1-en-2-yl)-1′,2′,3′,4′-tetrahydro-[1,1′-biphenyl]-2,4′,6-triol] | 28.3 ± 1.1 mA | >114 mA | 7 | > 330 |  |  |
| C=C(C)[C@@H]1C[C@H](O)C(C)=C[C@H]1c1c(O)cc(-c2cnn(C)c2)cc1O [Compound 10, (1′R,2′R,4′S)-5′-Methyl-4-(1-methyl-1H-pyrazol-4-yl)-2′-(prop-1-en-2-yl)-1′,2″,3′,4′-tetrahydro-[1,1′-biphenyl]-2,4′,6-triol] | 28.3 +/− 1.1 mA | 31.0 +/− 0.2 mA | 21 | 32 |  |  |
| C=C(C)[C@@H]1C[C@H](O)C(C)=C[C@H]1c1c(O)cc(-c2ccc(F)cc2)cc1O [Compound 18, (1R,2R,4S)-4″-fluoro-5-methyl-2-(prop-1-en-2-yl)-1,2,3,4-tetrahydro-[1,1′:4′,1″-terphenyl]-2′,4,6′-triol] | 31.0 ± 4.5 mA | 61.5 ± 1.3 mA | 38 | 178 |  |  |
| C=C(C)[C@@H]1C[C@H](O)C(C)=C[C@H]1c1c(O)cc(-c2cccc(OC)c2)cc1O [Compound 15, (1R,2R,4S)-3″-Methoxy-5-methyl-2-(prop-1-en-2-yl)-1,2,3,4-tetrahydro-[1,1′:4′,1″-terphenyl]-2′,4,6′-triol] |  | >114 mA |  | > 407 |  |  |
| C=C(C)[C@@H]1C[C@H](O)C(C)=C[C@H]1c1c(O)cc(-c2ccc(OC(F)F)nc2)cc1O [Compound 19, (1′R,2′R,4′S)-4-(6-(Difluoromethoxy)pyridin-3-yl)-5′-methyl-2′-(prop-1-en-2-yl)-1′,2″,3′,4′-tetrahydro-[1,1′-biphenyl]-2,4′,6-triol] | 38.0 ± 1.9 mA | 97.5 ± 1.3 mA | 43 | 268 |  |  |
| C=C(C)[C@@H]1C[C@H](O)C(C)=C[C@H]1c1c(O)cc(-c2ccc(OC)nc2)cc1O [Compound 17, (1′R,2′R,4′S)-4-(6-Methoxypyridin-3-yl)-5′-methyl-2′-(prop-1-en-2-yl)-1′,2′,3′,4′-tetrahydro-[1,1′-biphenyl]-2,4′,6-triol] | 39.0 +/− 0.2 mA | >114 mA | 66 | > 385 |  |  |
